Measured values from PubChem BioAssay (NCI).
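These data come from cells grown in 96-well plates and exposed to compound for 48 hours at five concentrations. GI50: concentration for 50% inhibition of growth. At the TGI there is no net growth.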

Tests used:
Experiment in all cases: NCI tumour cell line growth inhibition, 48 h
[1] = tested on: SW-620 colon
[2] = tested on: HCC-2998 colon
[3] = tested on: HOP-92 NSCLC
[4] = tested on: CAKI-1 renal
[5] = tested on: HL-60(TB) leukemia
[6] = tested on: MALME-3M melanoma
[7] = tested on: HCT-116 colon
[8] = tested on: SR leukemia
[9] = tested on: HS 578T breast
[10] = tested on: NCI/ADR-RES ovarian

| Structure (SMILES) | TGI [1] [µM] | TGI [2] [µM] | TGI [3] [µM] | TGI [4] [µM] | TGI [5] [µM] | TGI [6] [µM] | TGI [7] [µM] | TGI [8] [µM] | GI50 [1] [µM] | GI50 [2] [µM] | GI50 [9] [µM] | TGI [9] [µM] | GI50 [7] [µM] | GI50 [4] [µM] | GI50 [10] [µM] | TGI [10] [µM] | GI50 [3] [µM] | GI50 [5] [µM] | GI50 [6] [µM] | GI50 [8] [µM] |
| --- | --- | --- | --- | --- | --- | --- | --- | --- | --- | --- | --- | --- | --- | --- | --- | --- | --- | --- | --- | --- |
| O=C1CCSC2=C1SCc1sccc12 | > 100 | > 100 | > 100 | > 100 | > 100 | > 100 | – | – | – | – | – | – | – | – | – | – | – | – | – | – |
| Nc1cc(=O)n(-c2ccccc2)c(=S)n1-c1ccccc1 | > 100 | > 100 | – | > 100 | – | > 100 | > 100 | – | – | – | – | – | – | – | – | – | – | – | – | – |
| COc1ccccc1NC(=O)c1nc2ccc([N+](=O)[O-])cc2nc1C | > 100 | > 100 | > 100 | > 100 | – | > 100 | > 100 | – | – | – | – | – | – | – | – | – | – | – | – | – |
| N/N=c1\c2ccccc2c2cc3c(cc12)/c(=N/N)c1ccccc13 | > 100 | > 100 | > 100 | – | > 100 | > 100 | > 100 | > 100 | – | – | – | – | – | – | – | – | – | – | – | – |
| O=C(Nc1ccccc1)c1cc(S(=O)(=O)Nc2nc3ccccc3o2)c(SCc2ccccc2)cc1Cl | 37.7 | 34.8 | – | 35.5 | – | – | 66.1 | – | 17.1 | 18.7 | 14.5 | 44.3 | 25.1 | 19.3 | 26.1 | 66.3 | – | – | – | – |
| O=S(=O)(/N=c1/scc(-c2ccccc2)n1-c1ccccc1)c1ccc(N2N=C3c4ccccc4CC3C2c2cccs2)cc1 (configuration not stated) | > 100 | 81.3 | > 100 | > 100 | – | – | – | – | 94.2 | 32.8 | 60.6 | > 100 | – | 73 | > 100 | > 100 | > 100 | – | – | – |
| CC(=O)OC1CC2C3CCC4C[C@@H](NC(=O)C=C(C)C)CC[C@]4(C)C3CC[C@]2(C)[C@H]1C(C)N(C)C (some centres not stated) | 3.47 | 3.57 | 4.06 | 13.2 | 5.46 | 4.53 | 2.22 | – | 1.65 | 1.75 | 2 | 5.25 | 0.854 | 3.71 | 4.13 | 16.5 | 0.89 | 2.23 | 2.04 | – |
| c1ccc2cc(C[n+]3ccn(CCCCCCCCCCn4cc[n+](Cc5ccc6ccccc6c5)c4)c3)ccc2c1 | 11.2 | 5.13 | 2.96 | – | 2.97 | 1.48 | 15.1 | – | 1.57 | 1.37 | 1.03 | 3.63 | 1.55 | – | 29.4 | > 100 | 0.396 | 1.25 | 0.313 | – |
| OCc1c[te]c(-c2ccccc2)c1 | > 100 | > 100 | – | > 100 | 45.1 | > 100 | 33.3 | – | – | – | – | – | – | – | – | – | – | – | – | – |
| CC1(C)[C@@H](OC(=O)CCC(=O)O)CC[C@]2(C)[C@H]3C(=O)C=C4[C@@H]5C[C@@](C)(C(=O)O)CC[C@]5(C)CC[C@@]4(C)[C@]3(C)CC[C@@H]12 | 126 | 80.5 | 87.2 | 157 | 73.6 | 128 | 75.6 | – | 59.2 | 56.1 | 49.6 | 253 | 51.8 | 61.6 | 81.2 | 146 | 58.6 | 54.6 | 90.8 | – |
| Cc1ccc(S(=O)OCC23CC4CC(CC(C4)C2)C3)cc1 (configuration not stated) | > 100 | > 100 | > 100 | > 100 | > 100 | > 100 | > 100 | > 100 | – | – | – | – | – | – | – | – | – | – | – | – |
| Cn1c(/C=C/[N+](=O)[O-])cc2ccccc21 | 3.22 | 3.36 | – | – | 57.5 | 25.9 | 2.45 | 8.06 | 1.67 | 1.84 | – | – | 1.04 | – | 6.45 | 92.5 | – | 13.1 | 11.1 | 2.16 |
| CC(=O)Nc1ccc(COC(O)CN2CCCCC2)cc1[N+](=O)[O-] (configuration not stated) | > 100 | > 100 | > 100 | > 100 | > 100 | > 100 | > 100 | > 100 | – | – | – | – | – | – | – | > 100 | – | – | – | – |
| COc1ccc(-n2ccnc2-c2cc(OC)c(OC)c(OC)c2)cc1 | > 100 | 24.6 | > 100 | 7.69 | – | > 100 | > 100 | – | 2.37 | 0.957 | 2.08 | 8.29 | 3.9 | 1.28 | 1.85 | 7.82 | 20 | – | 0.747 | – |
| CC(=O)NC1C(OCc2ccccc2)OC(COC(=O)CCCCCCCCCCNc2ccc([N+](=O)[O-])c3[nH]c4ccccc4c(=O)c23)C(O)C1OC(C)C(=O)NC(C)C(=O)NC(CCC(N)=O)C(=O)OCc1ccccc1 (configuration not stated) | > 100 | > 100 | – | > 100 | > 100 | – | > 100 | > 100 | – | – | – | – | – | – | – | – | – | – | – | – |
| COC(=O)C(Cc1nc2ccccc2nc1C)/C(=N\NC(N)=O)C(=O)Nc1cccc([N+](=O)[O-])c1 (configuration not stated) | > 100 | > 100 | – | > 100 | > 100 | > 100 | > 100 | > 100 | – | – | – | – | – | – | – | – | – | – | – | – |
| O=C(COC(=O)c1cccc2c(=O)c3ccccc3[nH]c12)Nc1ccc(C(=O)O)cc1 | > 100 | > 100 | > 100 | > 100 | > 100 | > 100 | > 100 | > 100 | – | – | – | – | – | – | – | – | – | – | – | – |
| COc1ccc(C(=O)C(c2ccc(OCc3ccccc3)cc2)c2ccc(OCc3ccccc3)cc2)cc1 | > 100 | > 100 | > 100 | > 100 | > 100 | > 100 | > 100 | > 100 | – | – | – | – | – | – | – | – | – | – | – | – |
| COc1cc([C@@H]2C[C@H]2c2cc(SC)n[nH]2)cc(OC)c1OC | > 100 | – | – | 37.9 | – | – | 85.7 | – | 26.9 | – | 15.1 | 45.2 | 23.6 | 15.6 | 17.6 | 49.3 | – | – | – | – |
